Data: patent publication US8791100B2 (Novartis AG, priority 2010, dated 2014)

Experiments:
[1] = biological target: human S1P1 receptors (Homo sapiens (Human), UniProt P21453); assay: Human S1P1 Receptor Calcium FLIPR Antagonist Assay (HeLa Gα16 S1P1); type: cell-based; conditions: relative antagonism vs probing agonist GNF-AC-1 at EC80, HeLa-S1P1/Gα16 cells
Text: Human S1P1 Receptor Calcium FLIPR Antagonist Assay
The assay measures intracellular changes of Ca^2+ mediated by the synthetic probing agonist 3-{[2-(2-Trifluoromethyl-biphenyl-4-yl)-benzo[b]thiophen-5-ylmethyl]-amino}-propionic acid (GNF-AC-1) in the HeLa-S1P1/Gα16 cell clone 1: HeLa (human cervix carcinoma, ATCC CCL2) cells stably expressing N-terminally myc-tagged human S1P1 receptors (GenBank™ accession No. NM_001400; UNIPROT P21453) and promiscuous Gα16 protein (GenBank™ accession number M63904, Swissprot P30679) are cultured at 37° C., 5% CO2, and 95% relative humidity. The cells are plated in 384 well black plates (10′000 cells per well). After 24 hours the cells are loaded with Fluo-4-AM (1.6 μM in HBSS and 2.5 mM probenicid) for 1 hour at 37° C. After washing, the cells are transferred to the FLIPR. The test compounds are added at different concentrations (≦100 μM) in HBSS in the presence of 0.1% BSA and changes in fluorescence are recorded (indication of agonism). The probing agonist is added 20-30 minutes afterwards to the wells at a concentration giving 80% of the maximal activity (EC80). After each addition, time points are collected as follows: 20 time points (2 seconds) before the addition of the agonist (Fmin) and 60 time points (1 or 2 seconds) after the addition of the probing agonist. This allows the determination of the maximal fluorescence (Fmax). The ratio (Fmax−Fmin)/Fmin is plotted against the log of the concentration of the test compounds and the IC50 (relative antagonism) is calculated using the XLfit-4 software. […] A concentration-response curve of the probing agonist is determined on each plate in parallel.

[2] = tested on: peripheral lymphocyte counts; assay: Measurement of circulating lymphocytes after oral administration (mice); type: in vivo; conditions: Mus musculus, C57BL/6NCrl mice, 30 mg/kg p.o., 24 hours, vs mean counts of untreated animals, mean ± STDEV, read-out: Residual Lymphocyte Counts 24 hours after p.o. dosing
Protocol: (§1) The compounds of the invention, e.g. compounds of formula (I) typically induce the depletion of blood lymphocyte as may be determined in the assay described below. Moreover, compounds of the invention, e.g. compounds of formula (I) are typically efficacious in the said assay also when administered via the per oral route of administration.
(§2) Measurement of Circulating Lymphocytes:
(§3) The test compounds (or salts thereof) are dissolved in a vehicle such as water, saline, PEG (polyethylene glycol) 200, or PBS (phosphate buffered saline). Adult mice (C57BU6NCrl strain, female, 18-20 g) or rats (Lewis strain, male, 6-12 weeks old) are administered up to 60 mg/kg of the test compounds in 10 ml/kg (C57BU6NCrl mice) or 2 ml/kg (Lewis rats) vehicle via per oral application. The vehicle or a reference salt and FTY720 (0.3 mg/kg) are used as negative and positive controls, respectively. Blood is collected from the sublingual vein at single time points, e.g. 14 or 24 hours after the test compound administration, under short isoflurane anesthesia. Two to three animals are used in each group. Whole blood samples are subjected to hematology analysis. Peripheral lymphocyte counts are determined using an automated analyzer. The Haemathology System uses a combination of light scatter, cytochemical staining and nuclear density on two independent channels to measure the total and differential white cell counts. The reduction of lymphocytes provoked by each test compound is calculated by comparing the lymphocyte counts measured after each treatment to the mean lymphocyte counts measured in five to eight untreated mice or rats, respectively. The data are presented as mean±STDEV.

[3] = tested on: peripheral lymphocyte counts; assay: Measurement of circulating lymphocytes after oral administration (rats); type: in vivo; conditions: Lewis rats, 30 mg/kg p.o., vs mean counts of untreated animals, mean ± STDEV
Protocol: as §1, §2, §3

Chain of human S1P1 receptors (P21453 whole entry): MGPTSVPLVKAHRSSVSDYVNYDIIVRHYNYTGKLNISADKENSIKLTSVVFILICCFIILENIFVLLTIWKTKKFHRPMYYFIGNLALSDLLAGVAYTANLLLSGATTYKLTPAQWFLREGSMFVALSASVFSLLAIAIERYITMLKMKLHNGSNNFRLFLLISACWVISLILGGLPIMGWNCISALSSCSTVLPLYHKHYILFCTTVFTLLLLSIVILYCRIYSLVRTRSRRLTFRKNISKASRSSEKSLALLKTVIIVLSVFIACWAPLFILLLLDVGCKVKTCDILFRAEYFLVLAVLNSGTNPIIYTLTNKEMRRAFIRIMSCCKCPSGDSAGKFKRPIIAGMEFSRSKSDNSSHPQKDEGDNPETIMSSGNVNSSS

Row | IC50 [1] [pM] | SMILES | response vs control in vivo at 30 mg/kg [2] [%] | Residual Lymphocyte Counts 24 hours after p.o. dosing [3]
1 | 1000 | CC[C@@H](Nc1ccc(C)c(CN2CC[C@@H](C(=O)O)C2)c1)c1ccc(Cl)c(C)c1 [Example 23, (R)-1-{5-[(R)-1-(4-Chloro-3-methyl-phenyl)-propylamino]-2-methyl-benzyl}-pyrrolidine-3-carboxylic acid] | 25.1 | 
2 | 900 | Cc1cc([C@H](Nc2ccc(C)c(CN3CC[C@@H](C(=O)O)C3)c2C)C(F)(F)F)ccc1Cl [Example 30, (R)-1-{3-[(S)-1-(4-Chloro-3-methyl-phenyl)-2,2,2-trifluoro-ethylamino]-2,6-dimethyl-benzyl}-pyrrolidine-3-carboxylic acid] | 19.4 | 26.9 ± 13.0%
3 | 800 | CCc1ccc(N[C@@H](c2ccc(Cl)c(C)c2)C(F)(F)F)cc1CN1CC[C@@H](C(=O)O)C1 [Example 34, (R)-1-{5-[(S)-1-(4-Chloro-3-methyl-phenyl)-2,2,2-trifluoro-ethylamino]-2-ethyl-benzyl}-pyrrolidine-3-carboxylic acid] | 24.2 | 
4 | 800 | CC[C@@H](Nc1ccc(Cl)c(CN2CC[C@@H](C(=O)O)C2)c1)c1cc(C)c(Cl)c(C)c1 [Example 43, (R)-1-{2-Chloro-5-[(R)-1-(4-chloro-3,5-dimethyl-phenyl)-propylamino]-benzyl}-pyrrolidine-3-carboxylic acid] | 21.8 | 
5 | 800 | CC[C@@H](Nc1ccc(C)c(CN2CC[C@@H](C(=O)O)C2)c1C)c1ccc(Cl)c(C)c1 [Example 32, (R)-1-{3-[(R)-1-(4-Chloro-3-methyl-phenyl)-propylamino]-2,6-dimethyl-benzyl}-pyrrolidine-3-carboxylic acid] | 17 | 
6 | 1300 | CC[C@@H](Nc1ccc(C)c(CN2CC(C(=O)O)C2)c1)c1cc(C)c(Cl)c(C)c1 [Example 41, 1-{5-[(R)-1-(4-Chloro-3,5-dimethyl-phenyl)-propylamino]-2-methyl-benzyl}-azetidine-3-carboxylic acid] | 20.2 | 
7 | 900 | Cc1cc([C@H](Nc2cc(CNCCC(=O)O)c(Cl)cn2)C(F)(F)F)ccc1Cl [Example 85, 3-({5-Chloro-2-[(S)-1-(4-chloro-3-methyl-phenyl)-2,2,2-trifluoro-ethylamino]-pyridin-4-ylmethyl}-amino)-propionic acid] |  | 11.6% ± 0.3
8 | 1600 | CC[C@@H](Nc1ccc(Cl)c(CN2CC(C(=O)O)C2)c1)c1cc(C)c(Cl)c(C)c1 [Example 61, 1-{2-Chloro-5-[(R)-1-(4-chloro-3,5-dimethyl-phenyl)-propylamino]-benzyl}-azetidine-3-carboxylic acid] | 16.2 | 
9 | 400 | Cc1cc([C@H](Nc2cc(CN3CC[C@@H](C(=O)O)C3)c(Cl)cn2)C(F)(F)F)ccc1Cl [Example 84, (R)-1-{5-Chloro-2-[(S)-1-(4-chloro-3-methyl-phenyl)-2,2,2-trifluoro-ethylamino]-pyridin-4-ylmethyl}-pyrrolidine-3-carboxylic acid] |  | 16.8% ± 7.2
10 | 500 | CC[C@@H](Nc1cc(CN2CC[C@@H](C(=O)O)C2)c(Cl)cn1)c1ccc(Cl)c(C)c1 [Example 55, (R)-1-{5-Chloro-2-[(R)-1-(4-chloro-3-methyl-phenyl)-propylamino]-pyridin-4-ylmethyl}-pyrrolidine-3-carboxylic acid] | 43.6 | 
11 | 900 | CC[C@@H](Nc1ccc(Cl)c(CN2CC(C(=O)O)C2)c1)c1ccc(Cl)c(C)c1 [Example 62, 1-{2-Chloro-5-[(R)-1-(4-chloro-3-methyl-phenyl)-propylamino]-benzyl}-azetidine-3-carboxylic acid] | 31.5 | 
12 | 200 | Cc1cc([C@H](Nc2ccc(Cl)c(CN3CC(C)(C(=O)O)C3)c2)C(F)(F)F)ccc1Cl [Example 65, 1-{2-Chloro-5-[(S)-1-(4-chloro-3-methyl-phenyl)-2,2,2-trifluoro-ethylamino]-benzyl}-3-methyl-azetidine-3-carboxylic acid] | 22.6 | 
13 | 1000 | Cc1cc([C@H](Nc2ccc(C)c(CN3CC[C@@H](C(=O)O)C3)c2)C(F)(F)F)ccc1Cl [Example 21, (R)-1-{5-[(S)-1-(4-Chloro-3-methyl-phenyl)-2,22-trifluoro-ethylamino]-2-methyl-benzyl}-pyrrolidine-3-carboxylic acid] | 17.8 | 
14 | 400 | Cc1cc([C@H](Nc2ccc(Cl)c(CN3CC[C@@H](C(=O)O)C3)c2)C(F)(F)F)ccc1Cl [Example 29, (R)-1-{2-Chloro-5-[(S)-1-(4-chloro-3-methyl-phenyl)-2,2,2-trifluoro-ethylamino]-benzyl}-pyrrolidine-3-carboxylic acid] | 35.6 | 
15 | 100 | Cc1cc([C@H](Nc2ccc(C)c(CN3CC(C(=O)O)C3)c2)C(F)(F)F)ccc1Cl [Example 70, 1-{5-[(S)-1-(4-Chloro-3-methyl-phenyl)-2,2,2-trifluoro-ethylamino]-2-methyl-benzyl}-azetidine-3-carboxylic acid] | 20.2 | 
16 | 1000 | Cc1cc([C@H](Nc2ccc(C)c(CN3CC(C(=O)O)C3)c2C)C(F)(F)F)ccc1Cl [Example 31, 1-{3-[(S)-1-(4-Chloro-3-methyl-phenyl)-2,2,2-trifluoro-ethylamino]-2,6-dimethyl-benzyl}-azetidine-3-carboxylic acid] | 23.4 | 
17 |  | CC[C@@H](Nc1ccc(Cl)c(CN2CC(C)(C(=O)O)C2)c1)c1cc(C)c(Cl)c(C)c1 [Example 66, 1-{2-Chloro-5-[(R)-1-(4-chloro-3,5-dimethyl-phenyl)-propylamino]-benzyl}-3-methyl-azetidine-3-carboxylic acid] | 19.4 | 
18 | 2100 | CC[C@@H](Nc1cc(CN2CC(C(=O)O)C2)ccc1F)c1ccc(Cl)c(C)c1 [Example 26, 1-{3-[(R)-1-(4-Chloro-3-methyl-phenyl)-propylamino]-4-fluoro-benzyl}-azetidine-3-carboxylic acid] |  | 
19 | 900 | CC[C@@H](Nc1cccc(CN2CC(C(=O)O)C2)c1)c1ccc(Cl)c(C)c1 [Example 3, 1-{3-[(R)-1-(4-Chloro-3-methyl-phenyl)-propylamino]-benzyl}-azetidine-3-carboxylic acid] |  | 
20 | 1600 | Cc1cc(C(Nc2cccc(CN3CC(C(=O)O)C3)c2)C(C)C)ccc1Cl (centres unmarked) [Example 17, 1-{3-[1-(4-Chloro-3-methyl-phenyl)-2-methyl-propylamino]-benzyl}-azetidine-3-carboxylic acid] |  | 
21 | 6700 | Cc1ccc(N[C@H](C)c2cc(C)c(Cl)c(C)c2)cc1CN1CC[C@@H](C(=O)O)C1 [Example 44, (R)-1-{5-[(R)-1-(4-Chloro-3,5-dimethyl-phenyl)-ethylamino]-2-methyl-benzyl}-pyrrolidine-3-carboxylic acid] |  | 
22 | 2400 | CC[C@@H](Nc1ccc(C)c(CNC[C@@H](C)C(=O)O)c1)c1cc(C)c(Cl)c(C)c1 [Example 49, (R)-3-(5-[(R)-1-(4-Chloro-3,5-dimethyl-phenyl)-propylamino)-2-methyl-benzylamino]-2-methyl-propionic acid] |  | 
23 | 600 | CC[C@@H](Nc1ccc(C)c(CN2CC(C(=O)O)C2)c1C)c1ccc(Cl)c(C)c1 [Example 33, 1-{3-[(R)-1-(4-Chloro-3-methyl-phenyl)-propylamino]-2,6-dimethyl-benzyl}-azetidine-3-carboxylic acid] | 16.2 | 
